# Source: US20160022708A1, “METHODS AND COMPOSITIONS FOR THE TREATMENT OF GLUTAMINE-ADDICTED CANCERS” (ST. JUDE CHILDREN'S RESEARCH HOSPITAL, priority 2013, published 2016)
# Counter-ions that a name gives are not always drawn. Like-named read-outs stand apart in the source and are kept apart here.
# Columns and labels:
# [1] = tested on: neuroblastoma and Ewing's sarcoma cell lines; experiment: CyQuant viability assay, panel of NB and Ewing's sarcoma cell lines; assay type: cell-based; details: for efficacy as single agent in vitro: single agents; for effectiveness on cancer cell lines: broad ranges of drug concentrations; for single agent effect: more glutamine-addicted cell lines such as IMR32, Kelly, RD-ES and SK-ES-1
# Procedure: To survey the effects of DON on neuroblastomas and Ewing's sarcomas, DON was tested on six neuroblastoma (SK-N-AS, SK-N-BE(2), SK-N-FI, IMR32, Kelly, and SH-SySy) and three Ewing's sarcoma cell lines (SK-N-MC, RD-ES and SK-ES-1) and a control immortalized foreskin fibroblast cell line (BJ). Using the CyQuant viability assay, the respective sensitivities of each cell line to DON were determined after 72 hrs of treatment in a universal media (EMEM, 10% FBS, 0.5 mM glutamine) containing physiological levels of glutamine and glucose. […] More strikingly, all three Ewing's sarcoma cell lines were especially sensitive to DON with an 80% loss in cell viability (FIG. 1B). […]
# (§1) 6-diazo-5-oxo-L-norleucine (Sigma Aldrich, St. Louis, Mo.) and epigallocatechin-3-gallate (Sigma Aldrich, St. Louis, Mo.) were solubilized in water, aminooxyacetate (Sigma Aldrich, St. Louis, Mo.), obatoclax mesylate (Selleckchem,), and ABT-263 (Sellekchem) were dissolved in 100% dimethyl sulfoxide (DMSO). In a 96-well tissue culture plate, 5×10^4 cells were plated in 100 ul of media containing EMEM, 10% FBS and 0.5 mM glutamine per well. Four hours after plating drugs were diluted to a 2× concentration in plating media and added to wells. Plates were incubated for 72-hrs and then submitted to CyQuant Cell Direct Proliferation Assay (Life Technologies) according to manufacturer's instructions and read with a Synergy HT Multi-mode microplate reader (Biotek).
# BJ foreskin fibroblasts = experiment: CyQuant viability assay, control cell line; assay type: cell-based
# Procedure: (§2) To survey the effects of DON on neuroblastomas and Ewing's sarcomas, DON was tested on six neuroblastoma (SK-N-AS, SK-N-BE(2), SK-N-FI, IMR32, Kelly, and SH-SySy) and three Ewing's sarcoma cell lines (SK-N-MC, RD-ES and SK-ES-1) and a control immortalized foreskin fibroblast cell line (BJ). Using the CyQuant viability assay, the respective sensitivities of each cell line to DON were determined after 72 hrs of treatment in a universal media (EMEM, 10% FBS, 0.5 mM glutamine) containing physiological levels of glutamine and glucose. […] More strikingly, all three Ewing's sarcoma cell lines were especially sensitive to DON with an 80% loss in cell viability (FIG. 1B).
# as §1
# [2] = in vivo; cited from earlier work
# SK-N-FI cells = experiment: CyQuant viability assay; assay type: cell-based; details: DON 72 hrs; EMEM, 10% FBS, 0.5 mM glutamine
# Procedure: as §2
# as §1, with “Four hours after plating drugs were diluted to a 2× concentration in plating media and added to wells.” left out
# [3] = tested on: Ewing's sarcoma cell lines (SK-N-MC, RD-ES and SK-ES-1); experiment: CyQuant viability assay, Ewing's sarcoma cell lines; assay type: cell-based; details: all three Ewing's sarcoma cell lines; DON 72 hrs
# Procedure: as §2
# as §1, with “Four hours after plating drugs were diluted to a 2× concentration in plating media and added to wells.” left out
# IMR32 tumors = experiment: Subcutaneous tumor growth; assay type: in vivo, mice; details: 50 mg/kg twice weekly I.P.
# Procedure: (§3) DON's effects on NB and EWS tumors in vivo were assessed. Subcutaneous tumors for the neuroblastoma cell lines SK-N-AS and SK-N-BE(2) as well as the Ewing's Sarcoma cell lines SK-N-MC and SK-ES-1 were grown to at least 200 mm^3 and were then randomized into either DON or control treatment groups. Mice were then treated with 100 mg/kg of DON or water control twice a week by intraperitoneal (I.P.) injection, equivalent to a twice a week dose of 300 mg/m^2 in children. Previous work has shown that a dose as high as 520 mg/m^2 was safely achievable in children. […] To attempt to extend the course of treatment, mice either were treated with half the dose at 50 mg/kg twice a week or with a once weekly injection of 100 mg/kg (1×/wk). The effectiveness of the original drug regimen was compared to the two new treatment schedules using mice with subcutaneous tumors from the most DON-resistant (SK-N-FI) and the most DON-sensitive (SK-N-MC) cell line in vitro. This experiment would allow for the determination whether the in vitro data was predictive of differences in response to DON in vivo. Both of the new drug regimens allowed a significant extension in length of treatment from 11 days to greater than 24 days. However, only the 50 mg/kg dose was effective against both tumor types. […] In addition, the SK-N-BE2 and IMR32 neuroblastoma cell lines were tested at the 50 mg/kg dose in mice with subcutaneous tumors. The 50 mg/kg dose was effective against both tumor types (FIG. 7 A-C).
# (§4) For subcutaneous tumor experiments, cells were injected into the hind flank of either 6-8 week old athymic (nu/nu) mice (Charles River) or into Rag2^−/−; gamma c^−/− mice (kindly provided by Dr. Shannon McKinney-Freeman). No difference in tumor growth kinetics was observed between different strains. SK-N-AS, SK-N-MC, and SK-ES-1 cells were injected at 2×10^6 cells per mouse in 100 μl total volume. SK-N-BE(2) cells were injected in a 1:1 mix of cells and Matrigel (BD Biosciences) at a final concentration of 2×10^6 cells per mouse. Tumor size was measured by digital caliper, and tumor volume was calculated using the formula 1/2*(length*width^2). When tumors reached an average size of 200 mm^3 mice were randomized into treatment groups. On the day of treatment, mice were weighed then given an intraperitoneal (i.p.) injection of either 100 mg/kg DON, 50 mg/kg or water control. All animal experiments were performed in accordance with the guidelines established by IACUC.
# SK-ES-1 tumors = experiment: Subcutaneous tumor growth; assay type: in vivo, mice; details: 100 mg/kg twice a week I.P.
# Procedure: as §3, §4
# SK-N-AS tumors [4] = experiment: Subcutaneous tumor growth; assay type: in vivo, mice; details: 100 mg/kg twice a week I.P.
# Procedure: as §3, §4
# SK-N-BE(2) tumors [5] = experiment: Subcutaneous tumor growth; assay type: in vivo, mice
# Procedure: as §3, §4
# SK-N-FI tumors = experiment: Subcutaneous tumor growth; assay type: in vivo, mice; details: 50 mg/kg twice a week I.P.
# Procedure: as §3, §4
# SK-N-MC tumors = experiment: Subcutaneous tumor growth; assay type: in vivo, mice
# Procedure: as §3, §4
# [6] = Tolerability in tumor-bearing mice (weight loss, length of treatment); assay type: in vivo
# Procedure: as §3
# For subcutaneous tumor experiments, cells were injected into the hind flank of either 6-8 week old athymic (nu/nu) mice (Charles River) or into Rag2^−/−; gamma c^−/− mice (kindly provided by Dr. Shannon McKinney-Freeman). No difference in tumor growth kinetics was observed between different strains. SK-N-AS, SK-N-MC, and SK-ES-1 cells were injected at 2×10^6 cells per mouse in 100 μl total volume. […] Tumor size was measured by digital caliper, and tumor volume was calculated using the formula 1/2*(length*width^2). […]
# SK-N-AS tumors [7] = experiment: IHC of BrdU and cleaved caspase-3 in tumors; assay type: in vivo, mice; details: ~1000 mm^3 tumors, 100 mg/kg DON day 1 and day 4
# Procedure: (§5) To investigate the effects of DON on proliferation and cell death in vivo, additional NB tumor studies using SK-N-AS and SK-N-BE(2) cells were set up. Tumors in each cohort were allowed to grow to ˜1000 mm^3 before they underwent one round of DON treatment at 100 mg/kg of DON twice a week. On day 4, the second dose of DON was given 6-hrs prior and BrdU injected 2 hours prior to harvesting the tumors for histology (FIG. 3A).
# (§6) For in vivo labeling of proliferating cells, mice with subcutaneous SK-N-AS or SK-N-BE(2) tumors (1000 mm^3) were treated with DON and injected with BrdU (BD Biosciences). Mice were given an intraperitoneal (i.p.) injection of 100 mg/kg DON on day 1 and again on day 4. Four hours after the second dose of DON, mice were injected i.p. with 150 μl of 10 mg/ml BrdU. Tumor tissue was harvested 2 hours after addition of BrdU and samples were fixed in 10% formalin. Paraffin-embedded tissue sections were then stained for BrdU incorporation by the St. Jude Veterinary Pathology Core.
# SK-N-BE(2) tumors [8] = experiment: IHC of BrdU and cleaved caspase-3 in tumors; assay type: in vivo, mice; details: ~1000 mm^3 tumors, 100 mg/kg DON day 1 and day 4
# Procedure: as §5, §6
# SK-N-AS cells [9] = experiment: Cell cycle analysis by BrdU labeling (FACS); assay type: cell-based; details: 100 μM DON 72 hrs
# Procedure: as §5
# (§7) In vitro cell cultures were pulse-labeled with 10 μM BrdU (BD Biosciences) for 90 minutes at 37° C., and then fixed and stained with Anti-BrdU-FITC antibody and 7-AAD (BD Biosciences, #559619), according to manufacturer's protocol. Stained samples were then analyzed by the Flow Cytometry and Cell Sorting Shared Resource facility at St. Jude Children's Research Hospital.
# SK-N-BE(2) cells [10] = experiment: Cell cycle analysis by BrdU labeling (FACS); assay type: cell-based; details: 100 μM DON 72 hrs
# Procedure: as §5, §7
# SK-N-AS cells [11] = experiment: Annexin / propidium iodide staining (FACS); assay type: cell-based; details: 100 μM DON 72 hrs
# Procedure: as §5
# (§8) To measure early apoptosis, cells were plated in EMEM media containing 0.5 mM L-glutamine, 10% FBS, and 1% Penicillin/Streptomycin, then treated+/−100 μM DON for 72 hours. Both adherent and floating cells in the media were collected at harvest, and 3×10^5 cells were then stained with Annexin-V-FITC antibody for 15 minutes at room temperature. Cells were then counterstained with propidium iodide (9.1 μM final concentration) and filtered through a 40 μm nylon mesh. Immediately after staining, samples were analyzed by the Flow Cytometry and Cell Sorting Shared Resource facility at St. Jude Children's Research Hospital.
# SK-N-BE(2) cells [12] = experiment: Annexin / propidium iodide staining (FACS); assay type: cell-based; details: 100 μM DON 72 hrs
# Procedure: as §5, §8
# [13] = children, previous work; cited from earlier work
# [14] = cited from earlier work
compound,measurement,setting,value
COC1=CC(c2cc3ccccc3[nH]2)=N/C1=C\c1[nH]c(C)cc1C [obatoclax mesylate],efficacy as single agent in vitro,[1],some efficacy
"CC1=C(/C=C/C(C)=C/C=C/C(C)=C/C(=O)Nc2ccc(O)cc2)C(C)(C)CCC1 [fenretinide, N-(4-hydroxyphenyl)retinamide]",toxicity to BJ cells,BJ foreskin fibroblasts,non-toxic
same,effectiveness on cancer cell lines,[1],effective on all the cancer cell lines tested
same,bioavailability,[2],poor bioavailability
"[N-]=[N+]=CC(=O)CC[C@H](N)C(=O)O [DON, 6-diazo-5-oxo-L-norleucine]",reduction in cell numbers,SK-N-FI cells,20%
same,toxicity to BJ cells,BJ foreskin fibroblasts; broad ranges of drug concentrations,non-toxic
same,loss in cell viability,[3],80%
same,sensitivity to DON,"[1]; all cell lines except control BJ, 72 hrs",some sensitivity
same,effectiveness on cancer cell lines,[1],effective on all the cancer cell lines tested
same,loss in cell numbers,"[1]; multiple cell lines, DON 72 hrs, 0.5 mM glutamine",greater than 60%
same,efficacy as single agent in vitro,[1],some efficacy
same,tumor growth,IMR32 tumors,effective
same,tumor growth,SK-ES-1 tumors,dramatically blocked growth
same,tumor growth,SK-N-AS tumors [4],greatly reduced growth
same,tumor growth,SK-N-BE(2) tumors [5]; 50 mg/kg twice weekly I.P.,effective
same,tumor growth,SK-N-BE(2) tumors [5]; 100 mg/kg twice a week I.P.,greatly reduced growth
same,tumor growth,SK-N-FI tumors,effective
same,tumor growth,SK-N-MC tumors; 50 mg/kg twice a week I.P.,effective
same,tumor growth,SK-N-MC tumors; 100 mg/kg twice a week I.P.,dramatically blocked growth
same,length of treatment,[6]; 50 mg/kg twice a week or 100 mg/kg once weekly,greater than 24 days
same,weight loss in the mice,[6]; 100 mg/kg twice a week I.P.,caused weight loss
same,length of treatment,[6]; original regimen 100 mg/kg twice a week,11 days
same,caspase-3 cleavage,SK-N-AS tumors [7],no difference
same,reduction in BrdU incorporation,SK-N-AS tumors [7],> 90%
same,increase in caspase-3 cleavage,SK-N-BE(2) tumors [8],greater than 2 fold
same,reduction in BrdU incorporation,SK-N-BE(2) tumors [8],> 90%
same,entry into the S-phase of the cell cycle,SK-N-AS cells [9],reduced entry into the S-phase
same,entry into the S-phase of the cell cycle,SK-N-BE(2) cells [10],reduced entry into the S-phase
same,cell death,SK-N-AS cells [11],increase in cell death
same,cell death,SK-N-BE(2) cells [12],increase in cell death
same,dose safely achievable,[13],≤ 520 mg/m^2
"CC1(C)CCC(c2ccc(Cl)cc2)=C(CN2CCN(c3ccc(C(=O)NS(=O)(=O)c4ccc(N[C@H](CCN5CCOCC5)CSc5ccccc5)c(S(=O)(=O)C(F)(F)F)c4)cc3)CC2)C1 [ABT-263, navitoclax]",toxicity to BJ cells,BJ foreskin fibroblasts,non-toxic
same,effectiveness on cancer cell lines,[1],effective on all the cancer cell lines tested
same,efficacy as single agent in vitro,[1],some efficacy
same,oral bioavailability,"[14]; in vivo, po",orally bioavailable
same,major adverse side effect,[14]; in vivo,thrombocytopenia
same,safety and tolerability,[14]; in vivo,safe and well-tolerated
same,tolerability,[14]; phase I and phase II clinical trials in adults,well tolerated
"NOCC(=O)O [AOA, aminooxyacetate]",single agent effect,[1],effective as single agents
epigallocatechin-3-gallate [EGCG],single agent effect,[1],effective as single agents
